{
  "source": "patent US10399964B2",
  "about": "“Coumarin-linked taxanes for detection and circumvention of cellular efflux” (The University of Kansas, priority 2017, dated 2019)",
  "key": {"HeLa cells": {"test_system": "HeLa cells", "test": "Subcellular distribution and colocalization by confocal microscopy in living HeLa cells", "format": "cell-based", "details": "for subcellular distribution / colocalization: confocal microscopy, 1 h; for binding to microtubules in cells: HeLa cells transfected with mCherry-tubulin", "method": "To examine the subcellular distribution of Compound 1, HeLa cells were imaged by confocal laser scanning microscopy (FIGS. 5A, 5B, and 5C). […] The distinct spectral profiles of PB and OG were used to further examine colocalization of Compound 1 and Flutax-2® (FIG. 5C).\nThe experiment was conducted by 1 hour incubation with HeLa cells, followed by a wash and then imaging using a 25% laser power with excitation at 405 nm and emission at 425-500 nm.\nThe studies compared the potency as an endoplasmic reticulum probe with commercial ER probe ER Tracker Blue-White DPX. […] Panels A and B used 1 nM of the compounds, Panels A1 and B1 used 10 nM of the compounds, Panels A2 and B2 used 100 nM of the compounds, and Panels A3 and B3 used 1 μM of the compounds.\nAs such, Compound 2 (PB-β-Ala-Taxol) was compared to iPr-Rhodol-β-Ala-Taxol with HeLa cells transfected with mCherry-tubulin."}, "[1]": {"test_system": "HeLa cervical carcinoma cells", "test": "Cytotoxicity, cellular viability by flow cytometry, HeLa", "details": "for IC50 / relative toxicity (cellular viability versus concentration): HeLa cells; for IC50: 48 h; for relative toxicity (cellular viability versus concentration): FIG. 9", "method": "The cytotoxicity of the taxane PB fluorophores towards HeLa cervical carcinoma cells (FIGS. 4A and 4B) was evaluated. These cell lines were treated for 48 h, cellular viability was analyzed by flow cytometry, and paclitaxel was used as a positive control.\nThe IC50s were also determined."}, "[2]": {"target": "cross-linked microtubules from bovine brain", "test": "Affinity for cross-linked microtubules by fluorescence enhancement", "details": "GAB buffer (pH 6.5); equilibrium binding curves; excitation 405 nm; read-out: apparent Kd", "method": "PB was excited at 405 nm and emitted photons were collected at and above 450 nm.\nExperiments were conducted to obtain the measured affinities of Compounds 1-3 for cross-linked microtubules from bovine brain using a fluorescence enhancement method (FIG. 2). […] PB was excited at 405 nm and emitted photons were collected at and above 450 nm."}, "HCT-15 cells": {"test_system": "HCT-15 cells", "test": "Cytotoxicity, cellular viability by flow cytometry, HCT-15", "format": "cell-based", "details": "for IC50: Homo sapiens, HCT-15, 48 h, 48 h"}, "[3]": {"test_system": "HeLa, Ramos, Raji, HL-60, and Jurkat cell lines", "test": "Uptake into different cell lines by flow cytometry", "format": "cell-based", "details": "1 μM, 1 h, 200,000 cells/200 μL; verapamil 0, 25, 100 μM", "method": "The uptake of Compound 1 (PB-Gly-Taxol, at 1 μM, 1 h, 200,000 cells/200 μL) by different cell lines was studied and quantified by using flow cytometry."}, "P-gp in HeLa cells": {"target": "P-gp in HeLa cells (Homo sapiens, UniProt P08183)", "sequence (P08183 whole entry)": "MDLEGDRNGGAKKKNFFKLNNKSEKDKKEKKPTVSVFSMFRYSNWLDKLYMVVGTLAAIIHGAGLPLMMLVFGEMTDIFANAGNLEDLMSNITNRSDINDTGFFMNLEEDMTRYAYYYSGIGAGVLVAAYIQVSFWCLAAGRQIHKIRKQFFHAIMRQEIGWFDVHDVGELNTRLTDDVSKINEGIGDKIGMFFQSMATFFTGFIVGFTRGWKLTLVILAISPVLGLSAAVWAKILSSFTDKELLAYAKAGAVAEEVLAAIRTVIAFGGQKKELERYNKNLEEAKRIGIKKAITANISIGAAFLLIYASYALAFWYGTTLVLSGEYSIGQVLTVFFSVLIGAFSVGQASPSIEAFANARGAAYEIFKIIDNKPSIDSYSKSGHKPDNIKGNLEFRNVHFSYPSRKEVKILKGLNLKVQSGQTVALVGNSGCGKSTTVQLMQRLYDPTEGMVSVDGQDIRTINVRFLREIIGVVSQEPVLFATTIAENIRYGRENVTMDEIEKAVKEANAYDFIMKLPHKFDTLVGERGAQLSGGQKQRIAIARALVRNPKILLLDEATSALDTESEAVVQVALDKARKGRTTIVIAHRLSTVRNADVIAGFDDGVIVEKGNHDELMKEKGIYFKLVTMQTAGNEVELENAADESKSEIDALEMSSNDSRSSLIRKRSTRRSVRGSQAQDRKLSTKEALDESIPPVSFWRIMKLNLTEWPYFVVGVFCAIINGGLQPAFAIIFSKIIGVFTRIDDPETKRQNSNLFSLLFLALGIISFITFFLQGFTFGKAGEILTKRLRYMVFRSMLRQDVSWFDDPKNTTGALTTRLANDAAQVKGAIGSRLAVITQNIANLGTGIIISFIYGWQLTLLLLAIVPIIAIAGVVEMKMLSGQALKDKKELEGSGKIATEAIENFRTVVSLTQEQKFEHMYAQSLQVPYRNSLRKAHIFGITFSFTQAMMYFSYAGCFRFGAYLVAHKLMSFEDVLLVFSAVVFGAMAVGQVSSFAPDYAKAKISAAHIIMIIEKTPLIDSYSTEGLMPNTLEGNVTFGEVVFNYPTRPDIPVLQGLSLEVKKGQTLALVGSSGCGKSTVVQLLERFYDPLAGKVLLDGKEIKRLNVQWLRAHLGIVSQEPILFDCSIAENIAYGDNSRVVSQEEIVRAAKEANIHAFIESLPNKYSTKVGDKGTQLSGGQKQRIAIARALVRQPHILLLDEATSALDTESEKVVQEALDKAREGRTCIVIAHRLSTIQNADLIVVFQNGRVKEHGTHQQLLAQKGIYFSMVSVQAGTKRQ", "test": "P-gp efflux: cellular fluorescence with or without verapamil by flow cytometry, HeLa", "details": "probe 1 μM"}, "P-gp in HCT-15 cells": {"target": "P-gp in HCT-15 cells (Homo sapiens, UniProt P08183)", "sequence (P08183 whole entry)": "as above", "test": "P-gp efflux: cellular fluorescence with or without verapamil by flow cytometry, HCT-15", "details": "probe 1 μM", "method": "Studies were conducted to investigate the efflux of Compound 1 in HCT-15 cells that express high levels of P-gp. Compound 1 was compared with rhodamine 123 (Rho123), a common P-gp substrate that accumulates in mitochondria."}},
  "note": "Entries after “also recorded” stand apart in the source; their conditions may differ.",
  "data": [
    {"compound": "Flutax-2® [reference compound]", "values": [
      {"measurement": "subcellular distribution / colocalization", "setting": "HeLa cells; living HeLa cells", "result": "punctate fluorescence that did not co-localize with Compound 1 on microtubules"},
      {"measurement": "IC50", "setting": "[1]; presence of verapamil (25 μM)", "result": 1310, "unit": "nM"}
    ]},
    {"compound": "CC(=O)OC1C(=O)C2(C)C(OC(=O)CCNC(=O)c3cc4cc(F)c(O)c(F)c4oc3=O)CC3OCC3(OC(C)=O)C2C(OC(=O)c2ccccc2)C2(O)CC(OC(=O)C(O)C(NC(=O)c3ccccc3)c3ccccc3)C(C)=C1C2(C)C", "note": "(stereo not drawn) [Compound 2, PB-β-Ala-Taxol]", "values": [
      {"measurement": "binding to microtubules in cells", "setting": "HeLa cells", "result": "can bind to microtubules better than when paclitaxel is coupled to a different fluorophore"},
      {"measurement": "Kd", "setting": "[2]", "result": "63 ± 8", "unit": "nM"}
    ]},
    {"compound": "CC(=O)O[C@H]1C(=O)[C@@]2(C)C([C@H](OC(=O)c3ccccc3)[C@]3(O)C[C@H](OC(O)[C@H](O)[C@@H](NC(=O)c4ccccc4)c4ccccc4)C(C)=C1C3(C)C)[C@]1(OC(C)=O)CO[C@@H]1C[C@@H]2OC(=O)CCNC(=O)c1ccc(-c2c3cc(F)c(=O)cc-3oc3cc(NC(C)C)c(F)cc23)c(C)c1", "note": "(stereo partly drawn) [iPr-Rhodol-β-Ala-Taxol, reference compound]", "values": [
      {"measurement": "binding to microtubules in cells", "setting": "HeLa cells", "result": "does not bind extensively to microtubules"},
      {"measurement": "subcellular distribution / colocalization", "setting": "HeLa cells; living HeLa cells", "result": "appears to accumulate predominantly in the endoplasmic reticulum"},
      {"measurement": "cytotoxicity (in words)", "setting": "[1]", "result": "without engendering substantial cytotoxicity"}
    ]},
    {"compound": "CC(=O)OC1C(=O)C2(C)C(OC(=O)CCCNC(=O)c3cc4cc(F)c(O)c(F)c4oc3=O)CC3OCC3(OC(C)=O)C2C(OC(=O)c2ccccc2)C2(O)CC(OC(=O)C(O)C(NC(=O)c3ccccc3)c3ccccc3)C(C)=C1C2(C)C", "note": "(stereo not shown) [Compound 3, PB-GABA-Taxol]", "values": [
      {"measurement": "Kd", "setting": "[2]", "result": "265 ± 54", "unit": "nM"}
    ]},
    {"compound": "CC(=O)OC1C(=O)C2(C)C(OC(=O)CNC(=O)c3cc4cc(F)c(O)c(F)c4oc3=O)CC3OCC3(OC(C)=O)C2C(OC(=O)c2ccccc2)C2(O)CC(OC(=O)C(O)C(NC(=O)c3ccccc3)c3ccccc3)C(C)=C1C2(C)C", "note": "(stereo not shown) [Compound 1, PB-Gly-Taxol]", "values": [
      {"measurement": "subcellular distribution / colocalization", "setting": "HeLa cells; living HeLa cells", "result": "bound microtubules with very high specificity"},
      {"measurement": "Kd", "setting": "[2]", "result": "34 ± 6", "unit": "nM"},
      {"measurement": "IC50", "setting": "HCT-15 cells; with verapamil (25 μM)", "result": 90, "unit": "nM"},
      {"measurement": "IC50", "setting": "HCT-15 cells; without verapamil", "result": 3700, "unit": "nM"},
      {"measurement": "enhancement of toxicity by verapamil", "setting": "HCT-15 cells; verapamil 25 μM versus none", "result": 41, "unit": "fold"},
      {"measurement": "effect of verapamil on uptake", "setting": "[3]", "result": "the inclusion of verapamil increased the uptake"},
      {"measurement": "relative toxicity (cellular viability versus concentration)", "setting": "[1]", "result": "less toxic than PB-NHMe-Gly-Taxol (Compound 21); also recorded: less toxic than paclitaxel"},
      {"measurement": "IC50", "setting": "[1]; Homo sapiens, HeLa, absence of verapamil", "result": 120, "unit": "nM"},
      {"measurement": "IC50", "setting": "[1]; Homo sapiens, HeLa, presence of verapamil (25 μM)", "result": 60, "unit": "nM"}
    ]},
    {"compound": "PB-NHMe-Gly-Taxol [Compound 21]", "values": [
      {"measurement": "potency as endoplasmic reticulum probe", "setting": "HeLa cells; living HeLa cells, 1 nM to 1 μM, versus ER Tracker Blue-White DPX", "result": "more potent as an endothelium reticulum probe compared to ER Tracker Blue-White DPX"},
      {"measurement": "subcellular distribution / colocalization", "setting": "HeLa cells; living HeLa cells", "result": "does not appear to colocalize with Flutax-2® on microtubules"},
      {"measurement": "subcellular distribution / colocalization", "setting": "HeLa cells; living HeLa cells, listed as PB-NHMe-Gly-Taxol", "result": "accumulate in the endoplasmic reticulum; also recorded: colocalizes with the red fluorescent endoplasmic reticulum probe HRA"},
      {"measurement": "relative toxicity (cellular viability versus concentration)", "setting": "[1]", "result": "less toxic than paclitaxel"}
    ]},
    {"compound": "PB-NH2-Gly-Taxol [Compound 22]", "values": [
      {"measurement": "subcellular distribution / colocalization", "setting": "HeLa cells; living HeLa cells", "result": "accumulate in the endoplasmic reticulum"}
    ]},
    {"compound": "rhodamine 123 [Rho123]", "values": [
      {"measurement": "detection of low levels of P-gp activity", "setting": "P-gp in HeLa cells", "result": "undetectable"},
      {"measurement": "increase of cellular fluorescence in presence of verapamil", "setting": "P-gp in HCT-15 cells; verapamil 25 μM", "result": 3, "unit": "fold"},
      {"measurement": "increase of cellular fluorescence in presence of verapamil", "setting": "P-gp in HCT-15 cells; verapamil 100 μM", "result": 3, "unit": "fold"}
    ]}
  ]
}
